Source: patent publication US8283356B2, “2,4- Di(hetero)-arylamino-pyrimidine derivatives as ZAP-70 and/or SYK inhibitors” (Novartis AG, priority 2003, dated 2012)

target: T1, ZAP-70 (Homo sapiens, UniProt P43403); experiment: ZAP-70 kinase assay (time-resolved fluorescence resonance energy transfer); assay type: biochemical; settings: 80 nM ZAP-70, 4 μM ATP, LAT-11 peptide substrate
T1 construct: purchased Upstate Biotechnology, Lake Placid, N.Y
T1 sequence (P43403 1-619): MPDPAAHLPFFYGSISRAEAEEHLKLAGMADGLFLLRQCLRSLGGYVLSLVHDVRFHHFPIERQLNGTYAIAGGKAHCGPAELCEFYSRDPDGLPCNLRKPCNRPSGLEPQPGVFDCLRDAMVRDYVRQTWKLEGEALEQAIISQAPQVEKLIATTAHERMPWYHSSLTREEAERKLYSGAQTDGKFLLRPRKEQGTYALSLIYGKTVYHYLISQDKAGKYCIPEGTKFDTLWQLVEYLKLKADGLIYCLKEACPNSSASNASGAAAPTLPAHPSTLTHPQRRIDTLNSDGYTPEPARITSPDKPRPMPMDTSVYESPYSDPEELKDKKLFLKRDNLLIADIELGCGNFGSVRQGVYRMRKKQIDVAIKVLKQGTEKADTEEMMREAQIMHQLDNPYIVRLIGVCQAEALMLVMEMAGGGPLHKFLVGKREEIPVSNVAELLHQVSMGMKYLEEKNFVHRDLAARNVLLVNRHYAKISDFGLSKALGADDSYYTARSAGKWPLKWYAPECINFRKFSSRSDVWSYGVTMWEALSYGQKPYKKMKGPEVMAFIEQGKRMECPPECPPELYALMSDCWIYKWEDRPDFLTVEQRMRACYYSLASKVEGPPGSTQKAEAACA
Method: 1. ZAP-70 Cell-Free Kinase Assays
ZAP-70 and Lck (lymphoid T-cell protein tyrosine kinase) are commercially available from Upstate Biotechnology, Lake Placid, N.Y.
ZAP-70 Kinase assay: The activities of the compounds of invention are determined in a homogenous ZAP-70 kinase assay based on time-resolved fluorescence resonance energy transfer. Briefly, 80 nM ZAP-70 are incubated with 80 nM Lck and 4 μM ATP in ZAP-70 kinase buffer (20 mM Tris, pH 7.5, 10 μM Na3VO4, 1 mM DTT, 1 mM MnCl2, 0.01% bovine serum albumin, 0.05% Tween 20) for 1 hour at room temperature in a siliconized polypropylene tube. Then, the selective Lck inhibitor PP2 (4-amino-5-(4-chloro-phenyl)-7-(t-butyl)pyrazolo[3,4-d]pyrimidine; Alexis Biochemicals) is added (final concentration 1.2 μM) and incubated for further 10 min. Ten μl of this solution is mixed with the 10 μl biotinylated peptide LAT-11 (linker for activation of T cell prepared as disclosed in Example 1A of WO 02/12275, the contents of which, particularly with reference to Example 1A, is incorporated herein by reference; 1 μM) as substrate and 20 μl of serial dilutions of inhibitors and incubated for 4 hours at room temperature. The kinase reaction is terminated with 10 μl of a 10 mM EDTA solution in detection buffer (20 mM Tris, pH 7.5, 0.01% bovine serum albumin, 0.05% Tween 20). The detection phase is performed by addition of 50 μl europium (Eu)-labelled anti-phosphotyrosine antibody (e.g. Eu-PT66; final concentration 0.125 nM; Advant/Wallac) and 50 μl streptavidin-allophycocyanine (SA-APC; final concentration 40 nM) in detection buffer. After 1 hour incubation at room temperature fluorescence is measured, e.g., on the Victor2 Multilabel Counter (VVallac) at 665 nm. Background values (low control) are obtained in the absence of test samples and ATP and are subtracted from all values. Signals obtained in the absence of test samples are taken as 100% (high control). The inhibition obtained in the presence of test compounds is calculated as percent inhibition of the high control. The concentration of test compounds resulting in 50% inhibition (IC50) is determined from the dose-response curves.

| IC50 [nM] | SMILES |
| --- | --- |
| 16 | CN1CCN(CCOc2cccc(Nc3nccc(Nc4ccc5c(c4S(N)(=O)=O)OCCO5)n3)c2)CC1 [Example 11] |
| 37 | CNc1cc(Nc2nccc(Nc3cccc(OC)c3S(N)(=O)=O)n2)ccc1C [Example 139, 2-Methoxy-6-[2-(4-methyl-3-methyl-amino-phenylamino)-pyrimidin-4-ylamino]-benzenesulfonamide] |
| 21 | NS(=O)(=O)c1c(Nc2ccnc(Nc3ccc4c(c3)NCC4)n2)ccc2c1OCCO2 [Example 144, 6-[2-(2,3-Dihydro-1H-indol-6-ylamino)-pyrimidin-4-ylamino]-2,3-dihydro-benzo[1,4]dioxine-5-sulfonic acid amide] |
| 13 | COCCNc1cc(Nc2nccc(Nc3ccc4c(c3S(N)(=O)=O)OCCO4)n2)ccc1C [Example 57] |
| 183 | COc1cccc(Nc2ccnc(Nc3ccc4c(c3)NCC4)n2)c1S(N)(=O)=O [Example 141, 2-[2-(2,3-Dihydro-1H-indol-6-ylamino)-pyrimidin-4-ylamino]-6-methoxy-benzenesulfonamide] |
| 10 | CNc1cc(Nc2nccc(Nc3ccc4c(c3S(N)(=O)=O)OCCO4)n2)ccc1C [Example 140, 6-[2-(4-Methyl-3-methylamino-phenylamino)-pyrimidin-4-ylamino]-2,3-dihydro-benzo[1,4]dioxine-5-sulfonic acid amide] |
